The values that follow come from US20080199899A1, “Method For Screening Modulators of Mitochondrial Functioning and New Modulators Obtained” (priority 2002, published 2008).

Assay [1] concerns purified mouse liver mitochondria. In words: Real-time FCM analysis of mitochondrial transmembrane potential (ΔΨm) with JC-1. The format is biochemical. Conditions: JC-1 loaded mitochondria; 20 μM mClCCP, 30 μM Ca2+ or 5 μM Alamethicin. The protocol: (§1) Liver mitochondria were isolated from 3-4 weeks old Balb-c mice (IFFA CREDO, Saint Germain sur l'Arbresle, France). Animals were fasted overnight before being killed by […] dislocation. Liver mitochondria were prepared as described (Jacotot, 2000). All steps were carried out at 4° C. Finally, the organelles were resuspended in ‘swelling buffer’, composed by 200 mM sucrose, 5 mM succinate, 10 mM Tris-MOPS (pH 7.4), 1 mM H3PO4, 2 μM Rotenone, and 10 μM EGTA at pH=7.4. Spectrophotometric and flow cytometric analyses were performed in this buffer. The protein content of isolated mitochondria was determined by the Bradford assay.
Mitochondrial transmembrane potential (ΔΨm) was assessed by 5,5′,6,6′,-tetracholoro-1,1,3,3′-tetraethylbenzimidazolyl carbocyanine iodide (JC-1, Molecular Probes) incorporation. This potential-sensitive cationic dye accumulates in the mitochdndrial matrix according to the Nernst equation (Reers et al., 1991). JC-1 green fluorescence, associated with JC-1 monomers was collected in the FL-1 channel. JC-1 orange fluorescence, associated with the formation of J-aggregates was collected in the FL-2 channel (585+/−21 nm) (Reers et al, 1991). Both fluorescences were recorded in logarithmic amplifier mode, using the PMT at a voltage adjusted to 907 and 622 respectively. Spectral overlap was avoided by adjusting compensation network as follows: FL1-18.5% FL2 and FL2-25.4% FL1. The JC-1 orange/green fluorescence ratio was calculated with the FCS Assistant software.
Real-time monitoring of ΔΨm was performed on mitochondrial samples containing 1.5 μg proteins in 400 μl of swelling buffer. […] Then drugs were added to the sample, and ΔΨm variations were recorded for the following 16 minutes. Depolarization curves were drawn as previously indicated for swelling curves; the time scale was divided into discrete periods of 1 minute and the mean of JC-1 orange and JC-1 green fluorescence of the corresponding mitochondrial subsets was calculated by the CellQuest Pro software and exported into the Microsoft Excel software.

Assay [2] has the same test system. In words: Real-time flow cytometry (FCM) analysis of mitochondrial morphology (FSC/SSC) on isolated mitochondria. It is filed as biochemical. Conditions: for changes of mitochondrial size (FSC) and structure (SSC) (in words): isolated mitochondria, 1-30 μM Ca2+, 20 μM CCCP, alamethicin 5 μg/ml; for induction of MMP / activity on isolated mitochondria (in words): real time test on isolated mitochondria. The protocol: as §1
Fluorescence-activated flow cytometry was performed using a 3-color FACSCalibur cytometer equipped with a 15 mW air-cooled 488 nm argon laser (Becton Dickinson, San Jose, Calif.). Mitochondria analyses were performed after appropriate settings of the Forward angle light scatter (FSC)—Side angle light scatter (SSC) detectors (see FIG. 1). Discrimination between mitochondria and cellular debris and noise background was performed by an appropriate gating on FSC-SSC scatter plots (FIG. 1) (Radcliff G, Jaroszeski M J 1998 Methods Mol Biol 91:1-24 Basics of flow cytometry). Systematic confirmation of the validity of this gating was obtained by a labeling of mitochondria with the ΔΨm-insensitive mitochondrial dye MitoTracker® Green (MTG, Molecular Probes, Eugene, Oreg.) (Jacotot et al., 2001). Briefly mitochondria (1.5 μg proteins) were respuspended in 400 μl swelling buffer containing 200 nM MTG for 15 min at room temperature. The organelles were immediately analyzed on the cytometer with the CellQuest Pro software (Becton Dickinson). MTG fluorescence was collected in the FL-1 channel (530+/−15 nm) and analyzed in logarithmic amplifier mode, using the PMT at a voltage adjusted to 907. Data from 20,000 gated mitochondria were recorded and analyzed.
Mitochondrial size was analyzed through the light scattered by the organelles at low angle using the Forward scatter (FSC) photodiode. Signals were collected using the E-00 setting, with a logarithmic amplification gain of 5.41. Mitochondrial structure was evaluated by the light scattered in the perpendicular direction. It was assessed by the sensitive Side scatter (SSC) photomultiplier tube (PMT), using a voltage of 581, and a linear amplification gain adjusted to 4.27. The morphological changes related to swelling of purified mitochondria were monitored by the increase in mitochondrial size (FSC) and the decrease in the organelle structure (SSC) using the CellQuest Pro software. The FSC/SSC ratio was calculated by the FCS Assistant software and permitted to integrate both variations in size and structure into only one parameter.
Real-time experiments were performed on mitochondrial samples containing 1.5 μg proteins in 800 μl (=2 ng/µl) of swelling buffer. Samples were acquired on the flow cytometer for 5 minutes to record basal morphological criteria. Then reagents were added to samples, and variations in light scattering were recorded for the following 15 minutes. The sample flow rate was settled to 12 μl+/−3 μl/min for both fixed- and real-time analyses.
Swelling curves were obtained after plotting FSC or SSC parameters versus time, and division of the time scale into discrete periods of 1 minute. The mean FSC and SSC of mitochondria from every period were calculated by the CellQuest Pro software, and were exported into the Microsoft Excel software.

Assay [3] shares this test system. In words: FCM analysis of PTP-dependant and PTP-independent MMP after pre-treatment with inhibitors. It is filed as biochemical. The conditions noted are these: for effect on alamethicin induced MMP (in words): 50 μM BA, 10 μM CsA or 10 μM Ruthenium red, then alamethicin 5 μg/ml. On the procedure:
Mitochondrial Membrane Permeabilization (MMP) was induced by 1-30 μM Calcium (CaCl2, MERCK), and 5 μg/ml Alamethicin (SIGMA). Ruthenium Red (SIGMA) and the PTP inhibitor Cyclosporine A (CSA, BIOMOL) were added at 10 μM 4 minutes before the addition of the MMP-inducing agents. The uncoupler carbonyl cyanide m-chlorophenylhydrazone (mClCCP, SIGMA) was used at 20 μM to completely collapse A m.
Fixed-time analyses were performed on mitochondrial samples containing 10 μg proteins in 100 μl of swelling buffer. Samples were submitted to MPP-inducing reagents for 30 min at 25° C. Samples were immediately analyzed by flow cytometry, and data from 20.000 mitochondria were recorded. The percentage of specific swelling determined on forward scatter was calculated as follows;
Fixed-time detection of ΔΨm was performed on mitochondrial samples containing 10 μg proteins in 100 μl of swelling buffer. Samples were submitted to MPT-inducing drugs for 15 min at 25° C., and JC-1 was added at 800 nM for 15 min at 37° C. in the dark. Samples were immediately analyzed by flow cytometry, and data from 20.000 mitochondria (gated on FSC-SSC parameters) were recorded. This assay permitted to quantify the percentage of highly energized mitochondria (with both orange and green fluorescence) and depolarized mitochondria (with green fluorescence only) as depicted in part C2 of FIG. 1.
Mitochondria were exposed 5 minutes to 50 μM BA, 10 μM Csa, or 10 μM Ruthenium red followed by 30 min treatment with Ca^2+ (30 μM) or alamethicin (5 μg/ml). Then, mitochondria were subjected to FCM analysis of ΔΨm (JC-1 orange fluorescence) and SSC (Mean+/−SD; n=3).

The test system of the next assay is Jurkat cells. In words: Apoptosis by FACS analysis (ΔΨm loss and cell membrane permeability), Jurkat cells. The format is cell-based, human. Conditions: 24 hours incubation with 5 to 20 μM peptide.
Assay [4] deals with mammary adenocarcinoma MDA-MD-231 cells. In words: Apoptosis by FACS analysis (ΔΨm loss and cell membrane permeability), adenocarcinoma cells. The format is cell-based, human. Conditions: Adenocarcinoma MDA-MD231 cells; 24 hours incubation with 5 to 20 μM peptide.
For another assay, the system named is HeLa cells. In words: Apoptosis of HeLa cells by fluorescent microscopy or FACS. The format is cell-based, human. Conditions: 5 or 10 μM, 24 or 48 h. On the procedure:
Characterization of apoptosis induced on cultured human cells by treatment with MMP inducing peptides. The example shown relates to peptide seq. ID no 3 […]. […] The peptide was then tested on cell: the HeLa cells in exponential growth phase were treated with peptide or mock treated, then analyzed by fluorescent microscopy or FACS to ascertain apoptosis.
Caspase-3 activation was performed using a fluorescent inhibitor of caspase-3 (FLICA, FAM-DEVD-FMK) from the CaspaTag™ kit (Intergen). The loss of plasma membrane integrity occurring during apoptosis of HeLa cells was determined by 7-Amino Actinomycin D. (7-AAD) incorporation (SIGMA). […] 7-AAD was added to cells at 37° C. for 15 min. Cells were trypsinized, resuspended in PBS and immediately acquired on the FACSCalibur. FAM-DEVD-FMK related fluorescence was detected using the Fl-1 channel. 7-AAD fluorescence was collected in the Fl-3 channel (>650 nm).
HeLa cells were stained by […] for 15 minutes and observe d using a DM IRB inverted fluorescence microscope (Leica).
HeLa cells were incubated for 24 or 48 h with 5 or 10 μM of peptide Seq. ID no 3 or left untreated. A. Cells were then stained with JC-1 and Hoechst dyes. […] B. Fluorescence microscopy of the cells, after 24 hours incubation with or without 5 μM peptide and staining with JC-1 dye. […]

The mark [5] stands for this setting: 50 μM BA or 10 μM CsA 5 min, then 30 μM Ca2+ 30 min.

Non-standard residues stand in square brackets, D forms with d. Residues, ends and D or L forms follow the SMILES beside them. Phe(ol) = N[C@H](CO)Cc1ccccc1; Aib = CC(C)(N)C(=O)O

Turning to `N#CC(C#N)=NNc1cccc(Cl)c1` [CCCP, carbonyl cyanide meta-chlorophenylhydrazone], in assay [1], the “changes of JC-1 orange fluorescence (ΔΨm) (in words)” value (“changes … (ΔΨm) (in words)” below) is given as “rapid decrease in JC-1 orange fluorescence”. For the same compound, the “changes of mitochondrial size (FSC) and structure (SSC) (in words)” value (from here on “changes of mitochondrial size”) in assay [2] is recorded as “low but significant granularity (SSC) decrease without detectable size (FSC) changes”.
`[Ca+2]` [Calcium]: in assay [1], the “changes … (ΔΨm) (in words)” value is reported as “decrease in JC-1 orange fluorescence”. Moreover, the “changes of mitochondrial size” value in assay [2] was “dose-dependent SSC decrease and FSC increase”.
For `N.N.N.N.N.N.N.N.N.N.N.N.N.N.[Cl-].[Cl-].[Cl-].[Cl-].[Cl-].[Cl-].[O-2].[O-2].[Ru+3].[Ru+3].[Ru+4]` [Ruthenium red], the “inhibition of Ca2+ induced SSC decrease” value in assay [3] (10 μM Ruthenium red 5 min, then 30 μM Ca2+ 30 min) stood at 80%. In addition, the “inhibition of Ca2+ induced ΔΨm loss” value in assay [3] (10 μM Ruthenium red 5 min, then 30 μM Ca2+ 30 min, JC-1 orange fluorescence) stood at 80%. In assay [3], the “effect on alamethicin induced MMP (in words)” value was “not affected”.
Take `CC(=O)NC(C)(C)C(=O)N1CCC[C@H]1C(=O)NC(C)(C)C(=O)N[C@@H](C)C(=O)NC(C)(C)C(=O)N[C@@H](C)C(=O)N[C@@H](CCC(N)=O)C(=O)NC(C)(C)C(=O)N[C@H](C(=O)NC(C)(C)C(=O)NCC(=O)N[C@@H](CC(C)C)C(=O)NC(C)(C)C(=O)N1CCC[C@H]1C(=O)N[C@H](C(=O)NC(C)(C)C(=O)NC(C)(C)C(=O)N[C@@H](CCC(=O)O)C(=O)N[C@@H](CCC(N)=O)C(=O)N[C@H](CO)Cc1ccccc1)C(C)C)C(C)C` [alamethicin] (Ac-[Aib]P[Aib]A[Aib]AQ[Aib]V[Aib]GL[Aib]PV[Aib][Aib]EQ[Phe(ol)]): in assay [1], the “changes … (ΔΨm) (in words)” value is recorded as “decrease in JC-1 orange fluorescence”. Further, the “changes of mitochondrial size” value in assay [2] is “simultaneous FSC increase and SSC decrease”.
For the compound `CO[C@H](C/C=C\C=C\CC/C=C/C[C@H](C)/C=C/C(=C\C(=O)O)CC(=O)O)/C(C)=C\C=C(/C)C(=O)O` [bongkrekic acid], in assay [3] (setting [5]), the “effect on Ca2+ induced SSC decrease (in words)” value was “partly affect” and the “effect on Ca2+ induced ΔΨm loss (in words)” value was “strongly reduces”. For the same compound, in assay [3], the “effect on alamethicin induced MMP (in words)” value is recorded as “not affected”.
Take EHWSYWLRPG-GGGGS: the “% of apoptotic cells” value in the assay with Jurkat cells stood at 8%; in assay [4] it was 7%. Moreover, in assay [2], the “induction of MMP / activity on isolated mitochondria (in words)” value is on record as “not active on mitochondria”.
In the case of “EHWSYWLRPGGGGGSLLFIHFRIGCRHSRIG [SEQ ID N^o 11]”, the “% of apoptotic cells” value came to 18% with Jurkat cells and 92% in assay [4].
GG*CRGDMFG*CG: the “induction of MMP / activity on isolated mitochondria (in words)” value in assay [2] is on record as “not found inducing MMP”.
For the compound “RKKRRQRRRCGGLANKKGAWLDSTKATRYLVKTESWILRN [SEQ ID N^o 4]”, in the assay on HeLa cells, the “apoptosis of HeLa cells (in words)” value is on record as “mitochondrio-toxic activity”.
